Holding throughout (assay type): in vivo
Experiment [1] concerns pigweed (Amaranthus retroflexus). The experiment can be described thus: Preemergence herbicidal activity, pigweed. Particulars: soil spray, visual after 3 weeks, 0 no injury, 100 complete kill or no germination. Summed up:
(§1)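 Test compounds are sprayed pre-emergence onto soil in seeded pots (highest rate 4.48 kg/ha) using an aqueous surfactant carrier, and the plants are grown in a greenhouse for 3 weeks. Injury is then rated by eye, 0 to 100%, against untreated plants.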

In experiment [2] the test system is wild buckwheat (Polygonum convolvulus). Description: Postemergence herbicidal activity, wild buckwheat. Particulars: foliar spray, visual after 2 weeks, 0 no injury, 100 complete kill. Summed up:
(§2)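 Visual injury, rated 0–100% against untreated plants 2 weeks after treatment, is the read-out. Compound was sprayed to thorough coverage on seedlings at the first or second true leaf stage, with application rates where 1 ppm equals roughly 1 g/ha.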

Experiment [3] has as its system blackgrass (Alopecurus myosuroides). Description: Preemergence herbicidal activity, blackgrass. Particulars: soil spray, visual after 3 weeks, 0 no injury, 100 complete kill or no germination. The essentials: as §1
The subject of experiment [4] is wild poinsettia (Euphorbia heterophylla). Description: Preemergence herbicidal activity, wild poinsettia. Particulars: soil spray, visual after 3 weeks, 0 no injury, 100 complete kill or no germination. Summed up: as §1
For experiment [5], the system named is velvetleaf (Abutilion theophrasti). Description: Preemergence herbicidal activity, velvetleaf. Particulars: soil spray, visual after 3 weeks, 0 no injury, 100 complete kill or no germination. Summed up: as §1
The subject of experiment [6] is lambsquarters (Chenopodium album). The experiment can be described thus: Postemergence herbicidal activity, lambsquarters. Particulars: foliar spray, visual after 2 weeks, 0 no injury, 100 complete kill. Summed up:
as §2

The subject of experiment [7] is Rox orange sorghum (Sorghum bicolor). The experiment can be described thus: Postemergence herbicidal activity, Rox orange sorghum. Particulars: foliar spray, visual after 2 weeks, 0 no injury, 100 complete kill. Summed up: as §2
Experiment [8] deals with cocklebur (Xanthium strumarium). The experiment can be described thus: Preemergence herbicidal activity, cocklebur. Particulars: soil spray, visual after 3 weeks, 0 no injury, 100 complete kill or no germination. The essentials: as §1
The test system of experiment [9] is giant foxtail (Setaria faberi). Description: Postemergence herbicidal activity, giant foxtail. Particulars: foliar spray, visual after 2 weeks, 0 no injury, 100 complete kill. The essentials: as §2
In experiment [10] the test system is velvetleaf (Abutilion theophrasti). Description: Postemergence herbicidal activity, velvetleaf. Particulars: foliar spray, visual after 2 weeks, 0 no injury, 100 complete kill. The essentials: as §2
Experiment [11] concerns morningglory (Ipomoea hederacea). The experiment can be described thus: Preemergence herbicidal activity, morningglory. Particulars: soil spray, visual after 3 weeks, 0 no injury, 100 complete kill or no germination. The essentials:
as §1

Experiment [12] relates to chickweed (Stellaria media). The experiment can be described thus: Postemergence herbicidal activity, chickweed. Particulars: foliar spray, visual after 2 weeks, 0 no injury, 100 complete kill. Summed up: as §2
For experiment [13], the system named is crabgrass (Digitaria sanguinalis). Description: Preemergence herbicidal activity, crabgrass. Particulars: soil spray, visual after 3 weeks, 0 no injury, 100 complete kill or no germination. Summed up: as §1
For experiment [14], the system named is barnyardgrass (Echinochloa crus-galli). Description: Preemergence herbicidal activity, barnyardgrass. Particulars: soil spray, visual after 3 weeks, 0 no injury, 100 complete kill or no germination. The essentials:
as §1

In a further experiment the test system is viola (Viola tricolor). The experiment can be described thus: Postemergence herbicidal activity, viola. Particulars: foliar spray, visual after 2 weeks, 0 no injury, 100 complete kill. The essentials:
as §2

Experiment [15] relates to wild oats (Avena fatua). The experiment can be described thus: Postemergence herbicidal activity, wild oats. Particulars: foliar spray, visual after 2 weeks, 0 no injury, 100 complete kill. Summed up:
as §2

Experiment [16] deals with wild oats (Avena fatua). Description: Preemergence herbicidal activity, wild oats. Particulars: soil spray, visual after 3 weeks, 0 no injury, 100 complete kill or no germination. The essentials:
as §1

Experiment [17] deals with lambsquarters (Chenopodium album). Description: Preemergence herbicidal activity, lambsquarters. Particulars: soil spray, visual after 3 weeks, 0 no injury, 100 complete kill or no germination. The essentials:
as §1

Experiment [18] deals with pigweed (Amaranthus retroflexus). The experiment can be described thus: Postemergence herbicidal activity, pigweed. Particulars: foliar spray, visual after 2 weeks, 0 no injury, 100 complete kill. The essentials:
as §2

In experiment [19] the test system is cocklebur (Xanthium strumarium). Description: Postemergence herbicidal activity, cocklebur. Particulars: foliar spray, visual after 2 weeks, 0 no injury, 100 complete kill. The essentials:
as §2

For experiment [20], the system named is giant foxtail (Setaria faberi). The experiment can be described thus: Preemergence herbicidal activity, giant foxtail. Particulars: soil spray, visual after 3 weeks, 0 no injury, 100 complete kill or no germination. The essentials:
as §1

In experiment [21] the test system is blackgrass (Alopecurus myosuroides). The experiment can be described thus: Postemergence herbicidal activity, blackgrass. Particulars: foliar spray, visual after 2 weeks, 0 no injury, 100 complete kill. Summed up:
as §2

Experiment [22] concerns morningglory (Ipomoea hederacea). The experiment can be described thus: Postemergence herbicidal activity, morningglory. Particulars: foliar spray, visual after 2 weeks, 0 no injury, 100 complete kill. The essentials:
as §2

The subject of experiment [23] is Rox orange sorghum (Sorghum bicolor). The experiment can be described thus: Preemergence herbicidal activity, Rox orange sorghum. Particulars: soil spray, visual after 3 weeks, 0 no injury, 100 complete kill or no germination. Summed up: as §1

The values below come from patent US6645918B1, “N-([1,2,4]triazoloazinyl)thiophenesulfonamide compounds and their use as herbicides” (Dow AgroSciences LLC, priority 2000, dated 2003).

The structures appear in SMILES notation.

Turning to `COc1cc(OC)n2nc(NS(=O)(=O)c3c(OC)csc3C(F)(F)F)nc2n1` [Compound 25], in [1] (17.5 g/Ha), the “AMARE preemergence injury score 0-100” value was determined as 95%. The “POLCO postemergence injury score 0-100” value in experiment [2] (31 ppm) is 70%. The “ALOMY preemergence injury score 0-100” value in experiment [3] (17.5 g/Ha) is on record as 95%. Moreover, the “EPHHL preemergence injury score 0-100” value in [4] (17.5 g/Ha) is given as 80%. Moreover, the “ABUTH preemergence injury score 0-100” value in [5] (17.5 g/Ha) was found to be 80%. Further, the “CHEAL postemergence injury score 0-100” value in experiment [6] (31 ppm) worked out at 90%. The “SORBI postemergence injury score 0-100” value in experiment [7] (31 ppm) came to 95%. For the same compound, in [8] (17.5 g/Ha), the “XANST preemergence injury score 0-100” value was 50%. The “SETFA postemergence injury score 0-100” value in experiment [9] (31 ppm) was 80%. For the same compound, the “ABUTH postemergence injury score 0-100” value in experiment [10] (31 ppm) is 70%. Also, the “IPOHE preemergence injury score 0-100” value in experiment [11] (17.5 g/Ha) is 60%. Further, the “STEME postemergence injury score 0-100” value in experiment [12] (31 ppm) was 60%. The “DIGSA preemergence injury score 0-100” value in experiment [13] (17.5 g/Ha) amounted to 85%. The “ECHCG preemergence injury score 0-100” value in experiment [14] (17.5 g/Ha) came to 85%. In the experiment on viola (Viola tricolor) (31 ppm), the “VIOTR postemergence injury score 0-100” value came to 70%. Moreover, the “AVEFA postemergence injury score 0-100” value with wild oats (Avena fatua) [15] (31 ppm) was determined as 80%. For the same compound, the “AVEFA preemergence injury score 0-100” value in the experiment on wild oats (Avena fatua) [16] (17.5 g/Ha) came out at 80%. Further, the “CHEAL preemergence injury score 0-100” value in experiment [17] (17.5 g/Ha) turned out to be 90%. The “AMARE postemergence injury score 0-100” value in [18] (31 ppm) is recorded as 90%. Further, in [19] (31 ppm), the “XANST postemergence injury score 0-100” value is 90%. For the same compound, the “SETFA preemergence injury score 0-100” value in experiment [20] (17.5 g/Ha) is on record as 85%. The “ALOMY postemergence injury score 0-100” value in experiment [21] (31 ppm) turned out to be 80%. In addition, in [22] (31 ppm), the “IPOHE postemergence injury score 0-100” value came out at 70%. For the same compound, the “SORBI preemergence injury score 0-100” value in experiment [23] (17.5 g/Ha) is reported as 90%.

Turning to `COc1csc(Cl)c1S(=O)(=O)Nc1nc2c(C)cnc(OC)n2n1` [Compound 21], the “AMARE preemergence injury score 0-100” value in experiment [1] (8.8 g/Ha) amounted to 60%. In [2] (62.5 ppm), the “POLCO postemergence injury score 0-100” value is on record as 100%. In addition, in experiment [3] (8.8 g/Ha), the “ALOMY preemergence injury score 0-100” value is 70%. Also, the “EPHHL preemergence injury score 0-100” value in experiment [4] (8.8 g/Ha) is listed as 60%. In addition, in experiment [5] (8.8 g/Ha), the “ABUTH preemergence injury score 0-100” value is recorded as 80%. For the same compound, the “CHEAL postemergence injury score 0-100” value in experiment [6] (62.5 ppm) was 100%. The “SORBI postemergence injury score 0-100” value in experiment [7] (62.5 ppm) is listed as 100%. For the same compound, in experiment [8] (8.8 g/Ha), the “XANST preemergence injury score 0-100” value turned out to be 50%. Further, the “SETFA postemergence injury score 0-100” value in experiment [9] (62.5 ppm) was 50%. For the same compound, the “ABUTH postemergence injury score 0-100” value in [10] (62.5 ppm) was determined as 100%. Besides, the “IPOHE preemergence injury score 0-100” value in [11] (8.8 g/Ha) turned out to be 40%. Further, the “STEME postemergence injury score 0-100” value in experiment [12] (62.5 ppm) turned out to be 100%. Also, the “DIGSA preemergence injury score 0-100” value in experiment [13] (8.8 g/Ha) was 40%. Besides, the “ECHCG preemergence injury score 0-100” value in experiment [14] (8.8 g/Ha) came out at 30%. In the experiment on viola (Viola tricolor) (62.5 ppm), the “VIOTR postemergence injury score 0-100” value is listed as 90%. The “AVEFA postemergence injury score 0-100” value in the experiment on wild oats (Avena fatua) [15] (62.5 ppm) is given as 75%. For the same compound, the “AVEFA preemergence injury score 0-100” value in the experiment on wild oats (Avena fatua) [16] (8.8 g/Ha) worked out at 70%. Besides, the “CHEAL preemergence injury score 0-100” value in experiment [17] (8.8 g/Ha) is 70%. Further, the “AMARE postemergence injury score 0-100” value in experiment [18] (62.5 ppm) is listed as 100%. Besides, in experiment [19] (62.5 ppm), the “XANST postemergence injury score 0-100” value amounted to 90%. For the same compound, the “SETFA preemergence injury score 0-100” value in [20] (8.8 g/Ha) turned out to be 70%. Also, the “ALOMY postemergence injury score 0-100” value in experiment [21] (62.5 ppm) was determined as 30%. The “IPOHE postemergence injury score 0-100” value in experiment [22] (62.5 ppm) came out at 80%. Besides, the “SORBI preemergence injury score 0-100” value in experiment [23] (8.8 g/Ha) was 70%.
